# Target: T1, glucan synthase (GS) (Candida albicans, UniProt O13428)
# T1 construct: Extraction of GS activity from membranes was performed at a protein concentration of 5 mg/mL in extraction buffer; endogenous in cells; host or cells: Candida albicans MY1055 (membrane fraction, detergent extraction, product entrapment)
# Assay: Glucan synthase inhibition (polymerization assay, 96-well)
# Assay type: biochemical
# Settings: glucan synthase prepared from Candida albicans MY1055; 60 min incubation at 22° C.; read-out: Candida Albicans GS IC50 (ng/mL) (converted)
# Method in brief: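 Partially purified membrane glucan synthase from C. albicans MY1055, 60 min at 22° C with 0.5 mM 3H-UDPG, 25 μM GTP-γ-S, pH 7.5 HEPES, 25 mM KF. TCA-precipitated glucan filtered and scintillation counted; IC50 (ng/mL) from sigmoidal fit of duplicates over 3-fold dilutions.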
# T1 sequence (O13428 1-1897): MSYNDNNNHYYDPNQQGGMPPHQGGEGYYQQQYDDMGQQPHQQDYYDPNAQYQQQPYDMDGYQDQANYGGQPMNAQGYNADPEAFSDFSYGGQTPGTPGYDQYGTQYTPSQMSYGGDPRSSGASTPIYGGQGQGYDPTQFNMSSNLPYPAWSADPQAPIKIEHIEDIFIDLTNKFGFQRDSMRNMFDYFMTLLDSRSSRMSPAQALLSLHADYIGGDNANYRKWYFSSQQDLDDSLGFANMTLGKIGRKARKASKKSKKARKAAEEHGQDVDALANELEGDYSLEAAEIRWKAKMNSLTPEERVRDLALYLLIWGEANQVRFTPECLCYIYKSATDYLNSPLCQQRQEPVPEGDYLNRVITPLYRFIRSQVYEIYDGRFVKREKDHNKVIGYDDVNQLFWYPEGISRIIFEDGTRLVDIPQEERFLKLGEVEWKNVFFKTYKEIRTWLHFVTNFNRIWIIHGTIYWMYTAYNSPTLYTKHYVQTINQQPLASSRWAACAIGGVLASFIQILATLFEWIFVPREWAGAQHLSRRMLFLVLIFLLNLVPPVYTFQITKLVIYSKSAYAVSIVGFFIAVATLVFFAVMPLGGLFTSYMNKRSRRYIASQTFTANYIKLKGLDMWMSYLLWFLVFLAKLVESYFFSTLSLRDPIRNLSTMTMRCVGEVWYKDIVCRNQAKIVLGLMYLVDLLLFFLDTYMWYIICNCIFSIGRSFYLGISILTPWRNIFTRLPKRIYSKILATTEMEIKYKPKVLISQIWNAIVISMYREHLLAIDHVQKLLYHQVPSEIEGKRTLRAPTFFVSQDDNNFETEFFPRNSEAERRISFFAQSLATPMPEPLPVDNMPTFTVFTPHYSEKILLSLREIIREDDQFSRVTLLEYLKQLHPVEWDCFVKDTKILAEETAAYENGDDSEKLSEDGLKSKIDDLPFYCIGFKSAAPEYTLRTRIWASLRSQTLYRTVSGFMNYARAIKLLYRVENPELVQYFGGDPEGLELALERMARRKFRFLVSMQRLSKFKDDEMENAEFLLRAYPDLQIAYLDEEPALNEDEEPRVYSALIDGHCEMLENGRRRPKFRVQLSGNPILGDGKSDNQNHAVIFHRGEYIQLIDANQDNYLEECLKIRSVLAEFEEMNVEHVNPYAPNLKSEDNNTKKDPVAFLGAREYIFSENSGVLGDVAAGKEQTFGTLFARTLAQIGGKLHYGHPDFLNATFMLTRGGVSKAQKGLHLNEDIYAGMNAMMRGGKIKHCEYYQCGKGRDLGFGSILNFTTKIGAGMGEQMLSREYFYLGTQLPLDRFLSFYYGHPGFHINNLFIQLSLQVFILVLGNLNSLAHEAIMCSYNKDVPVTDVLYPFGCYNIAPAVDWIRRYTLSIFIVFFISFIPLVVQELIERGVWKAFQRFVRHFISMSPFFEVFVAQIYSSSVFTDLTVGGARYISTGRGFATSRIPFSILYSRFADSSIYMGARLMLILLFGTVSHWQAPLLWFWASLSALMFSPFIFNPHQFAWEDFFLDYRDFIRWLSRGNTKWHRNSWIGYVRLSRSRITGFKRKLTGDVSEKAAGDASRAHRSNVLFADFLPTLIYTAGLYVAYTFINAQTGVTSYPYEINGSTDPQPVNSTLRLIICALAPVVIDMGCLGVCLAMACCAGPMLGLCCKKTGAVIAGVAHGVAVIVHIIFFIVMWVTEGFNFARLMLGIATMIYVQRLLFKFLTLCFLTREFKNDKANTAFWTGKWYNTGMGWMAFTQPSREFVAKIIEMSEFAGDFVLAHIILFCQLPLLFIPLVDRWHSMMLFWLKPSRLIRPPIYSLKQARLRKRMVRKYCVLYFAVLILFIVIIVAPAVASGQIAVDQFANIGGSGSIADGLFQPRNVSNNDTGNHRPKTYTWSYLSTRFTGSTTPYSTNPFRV
# T1 sequence (O42825 1-195 partner limits assumed): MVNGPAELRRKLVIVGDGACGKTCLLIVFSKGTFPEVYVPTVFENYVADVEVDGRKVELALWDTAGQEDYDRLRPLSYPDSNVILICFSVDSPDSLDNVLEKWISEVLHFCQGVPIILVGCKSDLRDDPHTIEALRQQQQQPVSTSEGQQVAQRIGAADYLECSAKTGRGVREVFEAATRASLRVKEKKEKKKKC
row,Structure (SMILES),IC50 [nM]
1,"CC(C)[C@@H](C)[C@@]1(C)CC[C@]2(C)[C@H]3CC[C@@H]4[C@@]5(COC[C@@]4(C)[C@@H](OCC(C)(N)CCO)[C@H](n4nnc(N)n4)C5)C3=CC[C@@]2(C)[C@@H]1C(=O)O (stereo partly drawn) [Example 122, (1S,4aR,6aS,7R,8R,10aR,10bR,12aR,14R,15R)-15-(2-amino-4-hydroxy-2-methylbutoxy)-14-(5-amino-2H-tetrazol-2-yl)-8-[(1R)-1,2-dimethylpropyl]-1,6,6a,7,8,9,10,10a,10b,11,12,12a-dodecahydro-1,6a,8,10a-tetramethyl-4H-1,4a-propano-2H-phenanthro[1,2-c]pyran-7-carboxylic acid]",16.7
2,"CCN(C)C(C)(CCOC)CO[C@H]1[C@H](n2nnc(N)n2)C[C@@]23COC[C@]1(C)[C@@H]2CC[C@H]1C3=CC[C@@]2(C)[C@H](C(=O)O)[C@@](C)([C@H](C)C(C)C)CC[C@]12C (stereo partly drawn) [Example 127, (1S,4aR,6aS,7R,8R,10aR,10bR,12aR,14R,15R)-14-(5-amino-2H-tetrazol-2-yl)-8-[(1R)-1,2-dimethylpropyl]-15-[2-(ethylmethylamino)-4-methoxy-2-methylbutoxy]-1,6,6a,7,8,9,10,10a,10b,11,12,12a-dodecahydro-1,6a,8,10a-tetramethyl-4H-1,4a-propano-2H-phenanthro[1,2-c]pyran-7-carboxylic acid]",30.9
3,"CNC(C)(CCF)CO[C@H]1[C@H](n2nnc(N)n2)C[C@@]23COC[C@]1(C)[C@@H]2CC[C@H]1C3=CC[C@@]2(C)[C@H](C(=O)O)[C@@](C)([C@H](C)C(C)C)CC[C@]12C (stereo partly drawn) [Example 129, (1S,4aR,6aS,7R,8R,10aR,10bR,12aR,14R,15R)-14-(5-amino-2H-tetrazol-2-yl)-8-[(1R)-1,2-dimethylpropyl]-15-[4-fluoro-2-methyl-2-(methylamino)butoxy]-1,6,6a,7,8,9,10,10a,10b,11,12,12a-dodecahydro-1,6a,8,10a-tetramethyl-4H-1,4a-propano-2H-phenanthro[1,2-c]pyran-7-carboxylic acid]",7.43
